Measurements from patent US4314989A, “Methionine sulfoxide amflioration of acetaminophen toxicity” (priority 1980, dated 1982).

Legend:
hamsters [1] = test: animal or person; type: in vivo, hamster; details: for % Deaths: deaths within 48 hours; for hamsters protected from the otherwise lethal dosage of acetaminophen: acetaminophen 600 mg/kg i.p.
Procedure: (§1) Hamsters weighing about 70 gm. each were divided into five groups of animals. An aqueous solution (ca. 0.7 ml) of […]. (600 mg/kg) of acetaminophen and an amount of methionine sulfoxide listed in the table below, was administered intraperitoneally to each hamster. All deaths occurred within 48 hours. The survivors all were alive one week later when examined again.

hamsters [2] = test: Enhancement of acetaminophen toxicity by BHT and protection by methionine sulfoxide in hamsters; type: in vivo, hamster
Procedure: as §1
(§2) Following the above procedure, hamsters were given i.p. either 300 mg/kg of acetaminophen or 600 mg/kg BHT.

hamsters [3] = test: Enhancement of acetaminophen toxicity by BHA and protection by methionine sulfoxide in hamsters; type: in vivo, hamster
Procedure: Hamsters weighing about 70 gm. each were divided into five groups of animals. […] All deaths occurred within 48 hours. The survivors all were alive one week later when examined again.
Methionine sulfoxide protects the hamsters against the enhanced acetaminophen toxicity up to dosages of about 200 mg/kg of BHA.

humans = details: in vivo; cited from earlier work
mice [4] = details: administered up to one hour after acute toxic amounts of acetaminophen; cited from earlier work
mice [5] = details: cited from earlier work
[6] = test system: hepatotoxicity after an overdose of acetaminophen; details: administered within 16 hours after an overdose of acetaminophen; clinical study; cited from earlier work
[7] = test system: man and experimental animals; details: cited from earlier work
[8] = test system: acetaminophen hepatotoxicity; test: Effect of BHT and BHA on hepatotoxicity of acetaminophen (general finding); details: in vivo
Text: Because the general population consumes large amounts of these chemicals daily, because of their presence in a wide variety of food products, the likelihood of an increased incidence of hepatoxicity in persons taking repeated dosages of acetaminophen is self-evident.

vitamin E deficient rats = details: cited from earlier work
[9] = test system: acetaminophen hepatotoxicity; details: cited from earlier work; for effect on acetaminophen hepatotoxicity: J. Kelleher et al.
man = details: vitamin C with acetaminophen, cited from earlier work
[10] = Enhancement of acetaminophen toxicity by BHT and protection by methionine sulfoxide in hamsters; type: in vivo, hamster; details: hamster, in vivo, ip; i.p. mixture of 300 mg/kg acetaminophen and 600 mg/kg BHT; within 24 hours; read-out: deaths
Procedure: as §1, §2

inbred mice = details: suggested for humans from studies with inbred mice; cited from earlier work
[11] = i.p. mixture of 300 mg/kg acetaminophen and 100 mg/kg BHA, all hamsters
[12] = acetaminophen 300 mg/kg i.p. alone

C[S+]([O-])CC[C@H](N)C(=O)O (stereo partly drawn) [methionine sulfoxide]
ED50 (hamsters [1]; Mesocricetus auratus, ip): ~65 mg/kg
% Deaths (hamsters [1]; methionine sulfoxide 50 mg/kg i.p. with acetaminophen 600 mg/kg, 15 animals): 60%
% Deaths (hamsters [1]; methionine sulfoxide 100 mg/kg i.p. with acetaminophen 600 mg/kg, 17 animals): 23.5%
hamsters protected from the otherwise lethal dosage of acetaminophen (hamsters [1]; methionine sulfoxide 100 mg/kg): over 75%
% Deaths (hamsters [1]; methionine sulfoxide 200 mg/kg i.p. with acetaminophen 600 mg/kg, 17 animals): 0%
hamsters protected from the otherwise lethal dosage of acetaminophen (hamsters [1]; methionine sulfoxide 200 mg/kg): protected all of the hamsters
% Deaths (hamsters [1]; methionine sulfoxide 400 mg/kg i.p. with acetaminophen 600 mg/kg, 8 animals): 0%
hamsters protected from the otherwise lethal dosage of acetaminophen (hamsters [1]; methionine sulfoxide 400 mg/kg): protected all of the hamsters
deaths (hamsters [2]; methionine sulfoxide 150 mg/kg concurrently with 300 mg/kg acetaminophen and 600 mg/kg BHT): no deaths occurred
coma produced by the combination of acetaminophen and BHA (hamsters [3]; methionine sulfoxide treated, survivors): manifested even in the survivors
dosage of BHA up to which hamsters are protected against the enhanced acetaminophen toxicity (hamsters [3]; methionine sulfoxide with acetaminophen and BHA, value is BHA dosage (up to about)): about 200 mg/kg

CCO [alcohol]
potentiation of acetaminophen hepatotoxicity (humans): markedly potentiate the hepatotoxicity

C[S+](C)[O-] [Dimethyl sulfoxide]
protection against the hepatotoxic effects of acetaminophen (mice [4]): protect mice against the hepatotoxic effects of acetaminophen
protection against CCl4 hepatotoxicity (mice [5]): inability of DMSO to protect mice

CC(=O)N[C@@H](CS)C(=O)O [acetylcysteine]
prevention of hepatotoxicity [6]: effective in preventing hepatotoxicity

dimethylmercaptol
protection against the hepatotoxicity of acetaminophen [7]: varying degrees of protection

COc1ccc(O)c(C(C)(C)C)c1 [BHA, butylated hydroxyanisole]
deaths (hamsters [3]; BHA 100-300 mg/kg i.p. alone): no deaths occurred
incidence of deaths (hamsters [3]; higher amounts of BHA (than 100 mg/kg) with acetaminophen): higher incidence of deaths
survival (hamsters [3]; i.p. mixture of 300 mg/kg acetaminophen and 100 mg/kg BHA): most survive
coma (hamsters [3]; [11]): go into a coma
time to coma (hamsters [3]; [11]): 15 to 20 min
effect on hepatotoxicity of acetaminophen [8]: profoundly enhance its hepatotoxicity

NCCS [cysteamine]
protection against the hepatotoxicity of acetaminophen [7]: varying degrees of protection

N[C@@H](CS)C(=O)O [cysteine]
protection against the hepatotoxicity of acetaminophen [7]: varying degrees of protection

[Se] [selenium]
protection against the hepatotoxicity of acetaminophen [7]: varying degrees of protection

CSCC[C@H](N)C(=O)O [methionine]
protection against the hepatotoxicity of acetaminophen [7]: varying degrees of protection

Cc1c(C)c2c(c(C)c1O)CCC(C)(CCCC(C)CCCC(C)CCCC(C)C)O2 (stereo not drawn) [vitamin E, α-tocopherol]
protection against the hepatotoxicity of acetaminophen [7]: varying degrees of protection
protection against the hepatotoxic effects of acetaminophen (vitamin E deficient rats): provides such protection
effect on acetaminophen hepatotoxicity [9]: reduce hepatotoxicity

O=C1O[C@H]([C@@H](O)CO)C(O)=C1O [vitamin C, ascorbic acid]
protection against the hepatotoxic effects of acetaminophen ([9]; Raghuram et al.): may provide such protection
apparent half-life of drug (acetaminophen) (man; by rate of secretion in the urine): did not affect the apparent half-life
excretion rate of acetaminophen sulfate (man): rapid and pronounced decrease

CCCOC(=O)c1cc(O)c(O)c(O)c1 [propyl gallate]
effect on acetaminophen hepatotoxicity [9]: reduce hepatotoxicity

Cc1cc(C(C)(C)C)c(O)c(C(C)(C)C)c1 [BHT, butylated hydroxytoluene]
mortality at 24 h [10]: 100%
deaths (hamsters [2]; BHT 600 mg/kg i.p. alone): No deaths occurred
enhancement of acetaminophen toxicity (hamsters [2]; i.p. mixture of 300 mg/kg acetaminophen and 600 mg/kg BHT): profound enchancement of acetaminophen toxicity
effect on hepatotoxicity of acetaminophen [8]: profoundly enhance its hepatotoxicity

CC(=O)Nc1ccc(O)cc1 [acetaminophen]
% Deaths (hamsters [1]; acetaminophen 600 mg/kg i.p. alone (methionine sulfoxide 0), 17 animals): 94%
deaths (hamsters [2]; [12]): No deaths occurred
deaths (hamsters [3]; [12]): no deaths occurred
cataracts (inbred mice): can cause cataracts in humans
hepatic necrosis (humans): can cause massive hepatic necrosis
